In PMC7855449 (European journal of medicinal chemistry, 2020):

Key:
[1] = Pharmacokinetic studies in mice; format: in vivo, female CD-1 mice; settings: i.p. exposure corrected for PPB
[2] = system: patient-derived HGSOC tumor spheroids; test: Patient derived spheroid assay with Taxol; format: cell-based
[3] = reported for 1a at 10 mg/kg, oral; cited from earlier work

CC(Sc1nc2nn(C3COC3)cc2c(=O)n1-c1ccccc1)c1ccccn1 (centres unmarked) [Compound 69, 2-(oxetan-3-yl)-5-phenyl-6-((1-(pyridin-2-yl)ethyl)thio)-2H-pyrazolo[3,4-d]pyrimidin-4(5H)-one]
unbound drug AUC0-7h obs [1]: 1.1 µM·h
single agent toxicity [2]: no single agent toxicity

CC(Sc1nc2nn(C3COC3)cc2c(=O)n1-c1ccccc1)c1ccccc1 (centres unmarked) [Compound 68, 2-(oxetan-3-yl)-5-phenyl-6-((1-phenylethyl)thio)-2H-pyrazolo[3,4-d]pyrimidin-4(5H)-one]
unbound drug AUC0-7h obs [1]: 0.6 µM·h

CS(=O)(=O)N1CCN(C(=O)c2cnc3ccc(F)cc3c2-c2ccc(C3(C#N)CC3)cc2)CC1 [Compound 1a]
AUC0-∞ [3]: 14.6 µM·h

CC(Sc1nc2nn(C3(C)COC3)cc2c(=O)n1-c1ccccc1)c1ccccc1 (centres unmarked) [Compound 74, 2-(3-methyloxetan-3-yl)-5-phenyl-6-((1-phenylethyl)thio)-2H-pyrazolo[3,4-d]pyrimidin-4(5H)-one]
unbound drug AUC0-7h obs [1]: 0.5 µM·h
